Experimental data: article PMC3518313 (Biochemistry, 2012)
Read-outs that look alike come from different tables or passages of the source.

How the values were obtained:
αY60W-CaaD [1] = molecular target: T1, αY60W-CaaD (Pseudomonas pavonaceae, UniProt Q9EV84+Q9EV85, Q9EV85:Y61W); test: Global fitting of kinetic data to the six-step model; format: biochemical, Pseudomonas pavonaceae 170
T1 sequence (Q9EV85 2-76 Y61W): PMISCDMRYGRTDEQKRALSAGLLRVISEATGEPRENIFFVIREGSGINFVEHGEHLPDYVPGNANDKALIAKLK
T1 sequence (Q9EV84 2-71): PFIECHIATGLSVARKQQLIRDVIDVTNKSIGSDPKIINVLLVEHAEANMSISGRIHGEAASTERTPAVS

αY60W-CaaD [2] = molecular target: T1, αY60W-CaaD
αY60W-CaaD [3] = molecular target: T1, αY60W-CaaD; conditions: competitive inhibition; 9 at 35–200 μM, bromide 0–50,000 μM
O=C(O)/C=C/Br = test: purified protein, by the assay type
CaaD = test: Inhibition of CaaD by the internal standard tartrate; format: biochemical, Pseudomonas pavonaceae 170; conditions: at concentrations of 4 mM
βI37W-CaaD = βI37W-CaaD (Pseudomonas pavonaceae, UniProt Q9EV84+Q9EV85, Q9EV84:I38W); test: biochemical
αL57W-CaaD = test: Steady state activity assay; format: biochemical, Pseudomonas pavonaceae 170; conditions: αL57W mutant
Wild-type CaaD = molecular target: T2, Wild-type CaaD (Pseudomonas pavonaceae, UniProt Q9EV84+Q9EV85); test: Rapid-quench burst experiment, bromide quantified by IC; conditions: wild-type 400 μM; saturating 9; pH 8.1, 22 °C
T2 sequence (Q9EV85 2-76): T1 sequence (Q9EV85 2-76 Y61W)
T2 sequence (Q9EV84 2-71): T1 sequence (Q9EV84 2-71)

αY60W-CaaD [4] = molecular target: T1, αY60W-CaaD; conditions: αY60W-CaaD vs wild-type
αY60W-CaaD [5] = molecular target: T1, αY60W-CaaD; test: Stopped-flow fluorescence of the reaction with 9, conventional analysis; format: biochemical, Pseudomonas pavonaceae 170
αY60W-CaaD [6] = molecular target: T1, αY60W-CaaD; test: Rapid-quench burst experiment, bromide quantified by IC
αM7W-CaaD = format: biochemical; conditions: αM7W-CaaD vs wild-type
αY60W-CaaD [7] = molecular target: T1, αY60W-CaaD; test: Stopped-flow fluorescence binding of malonate semialdehyde; parameters: species or system Pseudomonas pavonaceae 170
[8] = substrate: O=C(O)/C=C/Br; test: purified protein, by the assay type; conditions: other: wild-type CaaD, 100 mM Na2HPO4 buffer pH 8.1, 22 °C
[9] = other: αM7W, 100 mM Na2HPO4 buffer pH 8.1, 22 °C, pH 8.1, 22.0 °C
[10] = other: using the numbers in Table 4 and Scheme 3
[11] = Table 2, αY60W 400 μM, saturating 9, pH 8.1, 22 °C
[12] = Table 3, enzyme concentration 200 μM, 9 at 10,000 μM
[13] = Table 3, enzyme concentration 400 μM, 9 at 10,000 μM
[14] = Table 3, enzyme concentration 600 μM, 9 at 10,000 μM

For `Br` [bromide], the Kd (αY60W-CaaD [1]; read-out: Kd,Br, best fit, global fit, k5 held fixed at 200 s^−1) was 12.5 mM, the increase in fluorescence (αY60W-CaaD [2]; bromide bound to αY60W-CaaD) was ~ 14% and the “fluorescence factor for enzyme-bound bromide” value (αY60W-CaaD [2]; fit by simulation) was 1.17. It also gave a Kd (αY60W-CaaD [2]; read-out: Kd, Br-, fit by simulation, koff fixed at 200 s^−1) of 12 mM, a Kd (αY60W-CaaD [2]; read-out: predicted Kd, saturation of the fluorescence signal, hyperbolic fit) of 7.4 mM and a Ki (αY60W-CaaD [3]) of about 10 mM.

Molecule “αM7W-CaaD (Pseudomonas pavonaceae; Q9EV85:M8W)” has a Km (O=C(O)/C=C/Br; [9]) of 120 ± 10 OM, a kcat (O=C(O)/C=C/Br; [9]) of 0.6 s⁻¹ and a kcat/Km (O=C(O)/C=C/Br; [9]) of 3000 M⁻¹ s⁻¹.

With `O=C(O)C(O)C(O)C(=O)O` (centres unmarked) [Tartrate] the “inhibition of CaaD” value (CaaD) was “does not inhibit”.

Work on “αY60W-CaaD (Pseudomonas pavonaceae; Q9EV85:Y61W)” yielded a Km (O=C(O)/C=C/Br; [10]) of 95 µM, a kcat (O=C(O)/C=C/Br; [10]) of 2.2 s⁻¹ and a Km (O=C(O)/C=C/Br; other: αY60W, 100 mM Na2HPO4 buffer pH 8.1, 22 °C, pH 8.1, 22.0 °C) of 70 ± 3.5 OM.

`O=C(O)/C=C/Br` [compound 9, trans-3-bromoacrylate] was tested, and the “f/f0 (fluorescence scaling factor), best fit” value (αY60W-CaaD [1]; global fit to Scheme 4, fractional change in enzyme fluorescence) was 0.710, the “k3, best fit” value (αY60W-CaaD [1]; global fit, formation of E*PQ, k-3 fixed at 1 s^−1) was 9.6 s⁻¹ and the Kd (βI37W-CaaD) was over 40 mM. The activity (αL57W-CaaD) was “no activity”, the “Burst Amplitude (A)” value (Wild-type CaaD) was 0.8 and the kburst (Wild-type CaaD) was 90 ± 20 ^c s^−1. The “kcat (calculated from the burst equation)” value (Wild-type CaaD) was 3 ± 0.5 s⁻¹, the “decrease in Km compared with wild-type” value (αY60W-CaaD [4]) was ~ 1.5 fold and the “net forward rate kfor” value (αY60W-CaaD [5]; fit to Eq. 3) was ~ 8 s^−1. For the same molecule, the “apparent reverse rate krev” value (αY60W-CaaD [5]; fit to Eq. 3, equal to kcat) was ~ 3 s^−1, the “maximum rate of the fluorescence change” value (αY60W-CaaD [5]; single exponential fit, first 1 s) was ~ 10 s^−1 and the “Burst Amplitude (A)” value (αY60W-CaaD [6]; [11]) was 0.9. The kburst (αY60W-CaaD [6]; [11]) was 86 ± 10 s⁻¹, the “kcat (calculated from the burst equation)” value (αY60W-CaaD [6]; [11]) was 2.5 ± 0.5 s⁻¹ and the “Burst Amplitude (A)” value (αY60W-CaaD [6]; [12]) was 0.85. For the same molecule, the kburst (αY60W-CaaD [6]; [12]) was 43 ± 3 ^c s^−1, the “kcat (calculated from the burst equation)” value (αY60W-CaaD [6]; [12]) was 1.8 ± 0.5 s⁻¹ and the “Burst Amplitude (A)” value (αY60W-CaaD [6]; [13]) was 0.9. For the same molecule, the kburst (αY60W-CaaD [6]; [13]) was 86 ± 20 s⁻¹, the “kcat (calculated from the burst equation)” value (αY60W-CaaD [6]; [13]) was 2.5 ± 0.5 s⁻¹ and the “Burst Amplitude (A)” value (αY60W-CaaD [6]; [14]) was 0.94. For the same molecule, the kburst (αY60W-CaaD [6]; [14]) was 107 ± 15 s⁻¹, the “kcat (calculated from the burst equation)” value (αY60W-CaaD [6]; [14]) was 2.8 ± 0.5 s⁻¹ and the steady state turnover (αY60W-CaaD [6]; summary of Tables 2 and 3 (CaaD and αY60W-CaaD), 9 at 10 mM) was 3 s⁻¹. The “decrease in kcat compared with wild-type” value (αM7W-CaaD) was ~ 4 fold and the “decrease in kcat/Km compared with wild-type” value (αM7W-CaaD) was 4 fold.

With `O=C(O)/C=C/Cl` [compound 2, trans-3-chloroacrylic acid] the activity (αL57W-CaaD) was “no activity”.

Work on `O=CCC(=O)O` [compound 4, malonate semialdehyde] yielded a Kd (αY60W-CaaD [7]; Kd (koff / kon), estimate from conventional kon and koff) of 1.1 mM, a Kd (αY60W-CaaD [7]; Kd, 4, calculated from simulation kon and koff) of about 0.6 mM and a Kd (αY60W-CaaD [7]; Kd, end-point fluorescence titration fit to Equation S2) of 0.38 mM. For the same molecule, the “fluorescence factor for enzyme bound to 4” value (αY60W-CaaD [7]; fit by simulation) was 1.14, the koff (αY60W-CaaD [7]; read-out: koff, 4, conventional analysis, kobs vs [4], 250 ms) was 28 s⁻¹ and the koff (αY60W-CaaD [7]; read-out: koff, 4, fit by simulation (250 ms)) was 17 s⁻¹. The “increase in the fluorescence signal” value (αY60W-CaaD [7]; upon mixing αY60W-CaaD with 4) was 16%.

B1: Wild-type CaaD (Pseudomonas pavonaceae) (protein)
chain 1: T1 sequence (Q9EV85 2-76 Y61W)
chain 2: T1 sequence (Q9EV84 2-71)
Molecule B1 has a Km [8] of 120 ± 10 OM, a kcat [8] of 2.5 s⁻¹ and a kcat/Km [8] of 13000 M⁻¹ s⁻¹.
